{"source": "paper PMC9763333", "about": "“In vitro characterization of immune modulating drug-eluting immunobeads towards transarterial embolization in cancer” (Scientific Reports, 2022)", "format_in_all_cases": "physicochemical", "key": {"[1]": {"assay": "pKa measurement by triple titration in methanol–water co-solvent with Yasuda-Shedlovsky extrapolation", "details": "for pKa: methanol–water co-solvent, aqueous value by Yasuda-Shedlovsky extrapolation; for psKa1 / psKa2: methanol–water", "method": "pKa measurements were performed by Pion Inc, UK Ltd using known methods as previously reported[47]–[50] or calculated by using software MoKa (Molecular Discovery, Borehamwood, Hertfordshire, UK, https://www.moldiscovery.com/software/moka/#references) or directly obtained from the literature. For GARD and DSR 6434, a triple titration was carried out under methanol–water co-solvent conditions from pH 2.0–12.0 at concentrations of 2.3–1.3 mM (the methanol mixing ratio varied from 49.0 to 28.9% w/w) and 1.5–0.9 mM (the methanol mixing ratio varied from 49.6 to 29.1% w/w), respectively."}, "[2]": {"assay": "Drug loading into DC Bead LUMI", "method": "DC Bead LUMI was analyzed for its elemental composition by MEDAC Inc. […] Drug loading was performed in triplicate as previously reported[45] with slight modifications. […] Washing of beads is often a critical step in drug release studies as any drug left unbound to the beads affects the release profile and exaggerates the early burst release. […] However, washing was discontinued for TLR drugs as drug was continually observed even after multiple washes. […] The amount of drug loaded at the specified time points was calculated by subtracting the amount of drug remaining from the initial amount of drug in the loading solution and the cumulative amount of drug withdrawn for sampling. The maximum drug loaded in the beads was calculated once no further change in the concentration in the loading solution could be measured and before washing the beads. The relative percent drug loaded was defined as the maximum amount of drug loaded as a percent of the amount of SO3^- ions available in the beads on a molar basis using the following formula and the results are presented as the mean ± SD."}, "[3]": {"assay": "Drug release from DC Bead LUMI in saline", "details": "for release in saline from DC Bead LUMI after multiple washes in deionized water: single replicates", "method": "[…] Briefly, drug-loaded DC Bead LUMI or LC Bead (62.5 µL) were placed in vessels with 50 mL of saline ([…], pH 7.4) and were agitated with upright rocking motion at a set maximum rocking speed of 10 (70 rpm) for 144 h at 37 °C using Ward's® Rotating Mixer. At scheduled time intervals identical to the loading time points, 1 mL of release media was withdrawn and used for drug quantification. To maintain 50 mL total elution volume, 1 mL of fresh saline pre heated to 37 °C was replaced at each timepoint. […] 2.4. The cumulative amount of drug released at each time point was calculated by multiplying the concentration of each sample aliquot by the total volume (50 mL) of release media and adding the sum of the amount of drug removed for sampling at prior time points. […] The 50 mL volume was chosen to ensure infinite sink conditions where the maximum possible concentration of eluted drug would be at least 10 times more dilute than the maximum solubility. This ensures the rate of release is not affected by solution concentration but is only a function of interactions of the bead, drug, and saline."}, "[4]": {"assay": "Washing of drug-loaded beads with deionized water and microscopic appearance", "method": "Drug loading was performed in triplicate as previously reported[45] with slight modifications. […] Washing of beads is often a critical step in drug release studies as any drug left unbound to the beads affects the release profile and exaggerates the early burst release. […] However, washing was discontinued for TLR drugs as drug was continually observed even after multiple washes. […] The amount of drug loaded at the specified time points was calculated by subtracting the amount of drug remaining from the initial amount of drug in the loading solution and the cumulative amount of drug withdrawn for sampling. The maximum drug loaded in the beads was calculated once no further change in the concentration in the loading solution could be measured and before washing the beads. The relative percent drug loaded was defined as the maximum amount of drug loaded as a percent of the amount of SO3^- ions available in the beads on a molar basis using the following formula and the results are presented as the mean ± SD."}, "[5]": {"assay": "Drug solubilization by salt formation in acid", "details": "HPLC, two peaks observed", "method": "The base form of each drug was suspended in deionized water and titrated with 0.1 N hydrochloric acid (Fisher Scientific, Hampton, NH) while stirring until all the base was solubilized and the volume adjusted to a final concentration of 2.5 mg/mL. The resulting solution was frozen, then lyophilized to yield solid drug-hydrochloride salt or used in its solubilized form for loading into DC Bead LUMI. […] Doxorubicin.HCl was readily solubilized and used without modification. […] A ZORBAX Eclipse Plus C8 reversed-phase column (Agilent) and UV detector at wavelength of 230 nm were used for GS-9620 analysis. The decomposition product of GS-9620 was analyzed with reversed phase high-performance liquid chromatography (Rp-HPLC) and LC/MS."}}, "note": "Several values for one entry are separate records, joined by “and”; a condition that tells them apart may be missing. Equal values may be shown once. Entries after “also recorded” stand apart in the source; their conditions may differ. Read-outs that look alike come from different tables or passages of the source.", "data": [{"smiles": "CCNCc1nc2c(N)nc3ccccc3c2n1CC(C)(C)O", "note": "[GARD, gardiquimod]", "values": [{"measurement": "pKa", "setting": "[1]; read-out: pKa (first, measured)", "value": 7.02}, {"measurement": "pKa", "setting": "[1]; read-out: pKa (second, measured)", "value": 8.02}, {"measurement": "psKa1", "setting": "[1]; dielectric constant 56.8", "value": 6.81}, {"measurement": "psKa2", "setting": "[1]; dielectric constant 56.8", "value": 7.83}, {"measurement": "psKa1", "setting": "[1]; dielectric constant 61.6", "value": 6.89}, {"measurement": "psKa2", "setting": "[1]; dielectric constant 61.6", "value": 7.88}, {"measurement": "psKa1", "setting": "[1]; dielectric constant 66", "value": 6.92}, {"measurement": "psKa2", "setting": "[1]; dielectric constant 66", "value": 7.94}, {"measurement": "Relative percent drug loaded in DC Bead LUMI over time", "setting": "[2]; 5 min, single replicates", "value": "55.2766% and 60.9514% and 46.1831%"}, {"measurement": "Relative percent drug loaded in DC Bead LUMI over time", "setting": "[2]; 15 min, single replicates", "value": "43.0802% and 66.0616% and 55.143%"}, {"measurement": "Relative percent drug loaded in DC Bead LUMI over time", "setting": "[2]; 30 min, single replicates", "value": "48.003% and 64.9413% and 48.1153%"}, {"measurement": "Relative percent drug loaded in DC Bead LUMI over time", "setting": "[2]; 45 min, single replicates", "value": "42.5221% and 54.7578% and 59.077%"}, {"measurement": "Relative percent drug loaded in DC Bead LUMI over time", "setting": "[2]; 60 min, single replicates", "value": "49.9393% and 67.8727% and 53.1769%"}, {"measurement": "Relative percent drug loaded in DC Bead LUMI over time", "setting": "[2]; 120 min, single replicates", "value": "71.3739% and 70.6276% and 67.3547%"}, {"measurement": "Relative percent drug loaded in DC Bead LUMI over time", "setting": "[2]; 180 min, single replicates", "value": "60.3259% and 72.9711% and 72.9791%"}, {"measurement": "Relative percent drug loaded in DC Bead LUMI over time", "setting": "[2]; 240 min, single replicates", "value": "61.2934% and 72.504% and 74.4803%"}, {"measurement": "Relative percent drug loaded in DC Bead LUMI over time", "setting": "[2]; 300 min, single replicates", "value": "61.9583% and 65.0576% and 73.7822%"}, {"measurement": "Relative percent drug loaded in DC Bead LUMI over time", "setting": "[2]; 360 min, single replicates", "value": "62.1239% and 73.4051% and 73.7491%"}, {"measurement": "Relative percent drug loaded in DC Bead LUMI over time", "setting": "[2]; 420 min, single replicates", "value": "57.6019% and 70.5665% and 69.0951%"}, {"measurement": "Relative percent drug loaded in DC Bead LUMI over time", "setting": "[2]; 480 min, single replicates", "value": "60.233% and 70.8296% and 71.2658%"}, {"measurement": "Relative percent drug loaded in DC Bead LUMI over time", "setting": "[2]; 1440 min, single replicates", "value": "61.7405% and 70.3053% and 72.3473%"}, {"measurement": "Relative percent drug loaded in DC Bead LUMI over time", "setting": "[2]; 2880 min, single replicates", "value": "58.2466% and 69.7502% and 67.5798%"}, {"measurement": "Relative percent drug loaded in DC Bead LUMI over time", "setting": "[2]; 4320 min, single replicates", "value": "62.5088% and 74.175% and 74.3147%"}, {"measurement": "Relative percent drug loaded in DC Bead LUMI over time", "setting": "[2]; 8640 min, single replicates", "value": "62.7357% and 73.7536% and 73.1477%"}, {"measurement": "loading behaviour", "setting": "[2]; DC Bead LUMI", "value": "Fast loading"}, {"measurement": "Relative percent drug loaded (maximum, percent of SO3− available on a molar basis)", "setting": "[2]; DC Bead LUMI, mean (n = 3)", "value": "73% and 73.34%"}, {"measurement": "equivalent of drug loaded to sulfonated bead", "setting": "[2]; DC Bead LUMI, mean ± SD", "value": "0.21 ± 0.00", "unit": "mM drug/ml beads"}, {"measurement": "Maximum drug loaded", "setting": "[2]; DC Bead LUMI, mean ± SD, n = 3, base form except Dox (salt form)", "value": "65.97 ± 1.54", "unit": "mg drug/ml beads"}, {"measurement": "Maximum drug loaded (Triplicate), %", "setting": "[2]; DC Bead LUMI, single replicates", "value": "71.3739% and 74.175% and 74.4803%"}, {"measurement": "Drug: sulfonate", "setting": "[2]; molar ratio at maximum loading, DC Bead LUMI", "value": 0.733}, {"measurement": "Theoretical maximum loading level based on SO3− contents", "setting": "[2]; per mL DC Bead LUMI, assuming 1:1 drug to sulfonate", "value": 89.95, "unit": "mg"}, {"measurement": "release in saline from DC Bead LUMI after multiple washes in deionized water", "setting": "[3]; 5 min", "value": "13.8548 mg/mL of beads and 16.8316 mg/mL of beads and 16.696 mg/mL of beads"}, {"measurement": "release in saline from DC Bead LUMI after multiple washes in deionized water", "setting": "[3]; 15 min", "value": "6.978 mg/mL of beads and 10.4756 mg/mL of beads and 7.4826 mg/mL of beads"}, {"measurement": "release in saline from DC Bead LUMI after multiple washes in deionized water", "setting": "[3]; 30 min", "value": "11.5876 mg/mL of beads and 14.6655 mg/mL of beads and 10.6769 mg/mL of beads"}, {"measurement": "release in saline from DC Bead LUMI after multiple washes in deionized water", "setting": "[3]; 45 min", "value": "12.1501 mg/mL of beads and 14.1614 mg/mL of beads and 16.9158 mg/mL of beads"}, {"measurement": "release in saline from DC Bead LUMI after multiple washes in deionized water", "setting": "[3]; 60 min", "value": "12.3872 mg/mL of beads and 11.2006 mg/mL of beads and 10.7852 mg/mL of beads"}, {"measurement": "release in saline from DC Bead LUMI after multiple washes in deionized water", "setting": "[3]; 120 min", "value": "6.495 mg/mL of beads and 18.2582 mg/mL of beads and 8.614 mg/mL of beads"}, {"measurement": "release in saline from DC Bead LUMI after multiple washes in deionized water", "setting": "[3]; 180 min", "value": "13.4173 mg/mL of beads and 9.599 mg/mL of beads and 8.837 mg/mL of beads"}, {"measurement": "release in saline from DC Bead LUMI after multiple washes in deionized water", "setting": "[3]; 240 min", "value": "11.2341 mg/mL of beads and 19.3333 mg/mL of beads and 19.2869 mg/mL of beads"}, {"measurement": "release in saline from DC Bead LUMI after multiple washes in deionized water", "setting": "[3]; 300 min", "value": "11.4298 mg/mL of beads and 19.0264 mg/mL of beads and 20.0563 mg/mL of beads"}, {"measurement": "release in saline from DC Bead LUMI after multiple washes in deionized water", "setting": "[3]; 360 min", "value": "14.8464 mg/mL of beads and 16.7671 mg/mL of beads and 17.7148 mg/mL of beads"}, {"measurement": "release in saline from DC Bead LUMI after multiple washes in deionized water", "setting": "[3]; 420 min", "value": "10.7872 mg/mL of beads and 18.9583 mg/mL of beads and 16.16 mg/mL of beads"}, {"measurement": "release in saline from DC Bead LUMI after multiple washes in deionized water", "setting": "[3]; 480 min", "value": "14.0597 mg/mL of beads and 15.9257 mg/mL of beads and 20.8469 mg/mL of beads"}, {"measurement": "release in saline from DC Bead LUMI after multiple washes in deionized water", "setting": "[3]; 1440 min", "value": "16.384 mg/mL of beads and 22.102 mg/mL of beads and 14.1626 mg/mL of beads"}, {"measurement": "release in saline from DC Bead LUMI after multiple washes in deionized water", "setting": "[3]; 2880 min", "value": "17.882 mg/mL of beads and 19.297 mg/mL of beads and 22.6822 mg/mL of beads"}, {"measurement": "release in saline from DC Bead LUMI after multiple washes in deionized water", "setting": "[3]; 4320 min", "value": "17.16 mg/mL of beads and 21.3309 mg/mL of beads and 22.7224 mg/mL of beads"}, {"measurement": "release in saline from DC Bead LUMI after multiple washes in deionized water", "setting": "[3]; 8640 min", "value": "16.9125 mg/mL of beads and 21.9345 mg/mL of beads and 17.7447 mg/mL of beads"}, {"measurement": "release behaviour in saline", "setting": "[3]; DC Bead LUMI", "value": "rapid release"}, {"measurement": "removal of drug from beads by repeated washing with deionized water", "setting": "[4]; DC Bead LUMI", "value": "partially removed"}, {"measurement": "aggregation of drug during washing / elution", "setting": "[4]; deionized water and saline, microscopy", "value": "absence of aggregated"}]}, {"smiles": "CCCCOc1nc(N)c2c(n1)N(Cc1cccc(CN3CCCC3)c1)CC(=O)N2", "note": "[GS-9620]", "values": [{"measurement": "stability in the solubilizing conditions", "setting": "[5]", "value": "partially decomposed; also recorded: not stable"}]}]}
